Test results taken from patent US10323022B2, “Pyrrolidinyl urea, pyrrolidinyl thiourea and pyrrolidinyl guanidine compounds as TrkA kinase inhibitors” (Array BioPharma Inc., priority 2011, dated 2019).
pIC50: −log10 of the molar value.

These molecules were tested against TrkA (Homo sapiens (Human), UniProt P04629) (assay: TrkA Omnia Assay). Conditions: averaged IC50; 20 nM enzyme, 500 μM ATP, 10 μM peptide substrate.
Format: biochemical
Summary of the method: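 Recombinant TrkA (20 nM) preincubated 10 min at ambient temperature with compound, then Omnia Tyr Peptide #4 (10 μM) and ATP (500 μM) added in 25 mM MOPS pH 7.5, 5 mM MgCl2, 0.005% Triton X-100. Fluorescence (ex 360/em 485 nm) followed continuously for 70 min; IC50 from initial rates by 4- or 5-parameter logistic fit.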

Sequence of TrkA (P04629 33-796): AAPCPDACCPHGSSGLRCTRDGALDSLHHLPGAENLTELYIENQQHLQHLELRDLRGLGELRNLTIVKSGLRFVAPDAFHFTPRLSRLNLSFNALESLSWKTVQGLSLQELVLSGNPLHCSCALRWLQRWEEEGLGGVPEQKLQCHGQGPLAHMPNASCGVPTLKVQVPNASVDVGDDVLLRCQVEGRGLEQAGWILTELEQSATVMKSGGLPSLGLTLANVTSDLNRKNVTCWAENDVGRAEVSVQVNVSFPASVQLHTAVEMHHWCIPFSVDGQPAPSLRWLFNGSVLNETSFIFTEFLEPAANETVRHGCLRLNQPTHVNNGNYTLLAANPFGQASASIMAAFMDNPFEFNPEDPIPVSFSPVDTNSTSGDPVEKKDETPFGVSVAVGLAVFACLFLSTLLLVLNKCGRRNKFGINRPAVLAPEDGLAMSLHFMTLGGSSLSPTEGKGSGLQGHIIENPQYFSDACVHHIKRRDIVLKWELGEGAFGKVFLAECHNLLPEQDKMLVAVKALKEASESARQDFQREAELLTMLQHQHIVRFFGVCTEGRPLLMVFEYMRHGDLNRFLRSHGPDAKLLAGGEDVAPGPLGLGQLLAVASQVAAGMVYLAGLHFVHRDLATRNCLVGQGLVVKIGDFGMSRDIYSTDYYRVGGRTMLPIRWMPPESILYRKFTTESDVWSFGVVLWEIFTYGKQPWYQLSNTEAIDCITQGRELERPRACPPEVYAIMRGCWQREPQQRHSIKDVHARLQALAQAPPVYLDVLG

Row | Structure (SMILES) | pIC50
1 | CCOc1nn(-c2ccccc2)c(NC(=O)N[C@@H]2CN(CC(O)C(F)(F)F)C[C@H]2c2ccc(F)c(F)c2)c1C (stereo partly drawn) [Example 469, 1-((3S,4R)-4-(3,4-difluorophenyl)-1-(3,3,3-trifluoro-2-hydroxypropyl)pyrrolidin-3-yl)-3-(3-ethoxy-4-methyl-1-phenyl-1H-pyrazol-5-yl)urea] | 5.00 to 6.00
2 | CCOc1nn(-c2ccccc2)c(NC(=O)N[C@@H]2CN(CC(C)O)C[C@H]2c2ccc(F)c(F)c2)c1C (stereo partly drawn) [Example 470, 1-((3S,4R)-4-(3,4-difluorophenyvl)-1-(2-hydroxypropyl)pyrrolidin-3-yl)-3-(3-ethoxy-4-methyl-1-phenyl-1H-pyrazol-5-yl)urea] | 6.00 to 7.00
3 | CCOc1nn(-c2ccccc2)c(NC(=O)N[C@@H]2CN(CCC#N)C[C@H]2c2ccc(F)c(F)c2)c1C [Example 471, 1-((3S,4R)-1-(2-cyanoethyl)-4-(3,4-difluorophenyl)pyrrolidin-3-yl)-3-(3-ethoxy-4-methyl-1-phenyl-1H-pyrazol-5-yl)urea] | 6.00 to 7.00
4 | CCOc1nn(-c2ccccc2)c(NC(=O)N[C@@H]2CN(CC(=O)NC)C[C@H]2c2ccc(F)c(F)c2)c1C [Example 472, 2-((3R,4S)-3-(3,4-difluorophenyl)-4-(3-(3-ethoxy-4-methyl-1-phenyl-1H-pyrazol-5-yl)ureido)pyrrolidin-1-yl)-N-methylacetamide] | 6.00 to 7.00
5 | COCCN1C[C@@H](NC(=O)Nc2c(C)c(C)nn2C2CCCCC2)[C@H](c2ccc(F)c(F)c2)C1 [Example 473, 1-(1-cyclohexyl-3,4-dimethyl-1H-pyrazol-5-yl)-3-((3 S,4R)-4-(3,4-difluorophenyl)-1-(2-methoxyethyl)pyrrolidin-3-yl)urea] | > 7.00
6 | COCCN1C[C@@H](NC(=O)Nc2c(C)c(OCC(CO)CO)nn2-c2ccccc2)[C@H](c2ccc(F)c(F)c2)C1 [Example 474, 1-((3S,4R)-4-(3,4-difluorophenyl)-1-(2-methoxyethyl)pyrrolidin-3-yl)-3-(3-(3-hydroxy-2-(hydroxymethyl)propoxy)-4-methyl-1-phenyl-1H-pyrazol-5-yl)urea] | > 7.00
7 | COCCN1C[C@@H](NC(=O)Nc2c(C)c(OCC(F)(F)F)nn2-c2ccccc2)[C@H](c2ccc(F)c(F)c2)C1 [Example 475, 1-((3S,4R)-4-(3,4-difluorophenyl)-1-(2-methoxyethyl)pyrrolidin-3-yl)-3-(4-methyl-1-phenyl-3-(2,2,2-trifluoroethoxy)-1H-pyrazol-5-yl)urea] | > 7.00
8 | COCCN1C[C@@H](NC(=O)Nc2c(C)c(OCC(F)(F)F)nn2-c2ccccc2)[C@H](c2ccc(F)cc2)C1 [Example 476, 1-((3S,4R)-4-(4-fluorophenyl)-1-(2-methoxyethyl)pyrrolidin-3-yl)-3-(4-methyl-1-phenyl-3-(2,2,2-trifluoroethoxy)-1H-pyrazol-5-yl)urea] | > 7.00
9 | COCCN1C[C@@H](NC(=O)Nc2c(C)c(OCC(F)(F)F)nn2-c2ccccc2)[C@H](c2cc(F)cc(F)c2)C1 [Example 477, 1-((3S,4R)-4-(3,5-difluorophenyvl)-1-(2-methoxyethyl)pyrrolidin-3-yl)-3-(4-methyl-1-phenyl-3-(2,2,2-trifluoroethoxy)-1H-pyrazol-5-yl)urea] | > 7.00
10 | COCCN1C[C@@H](NC(=O)Nc2c(C)c(OCC(F)F)nn2-c2ccccc2)[C@H](c2ccc(F)c(F)c2)C1 [Example 478, 1-(3-(2,2-difluoroethoxy)-4-methyl-1-phenyl-1H-pyrazol-5-yl)-3-((3 S,4R)-4-(3,4-difluorophenyl)-1-(2-methoxyethyl)pyrrolidin-3-yl)urea] | > 7.00
11 | COCCN1C[C@@H](NC(=O)Nc2c(Cl)c(OCC(F)(F)F)nn2-c2ccccc2)[C@H](c2ccc(F)c(F)c2)C1 [Example 479, 1-(4-chloro-1-phenyl-3-(2,2,2-trifluoroethoxy)-1H-pyrazol-5-yl)-3-((3 S,4R)-4-(3,4-difluorophenyl)-1-(2-methoxyethyl)pyrrolidin-3-yl)urea] | > 7.00
12 | COCCN1C[C@@H](NC(=O)Nc2c(Cl)c(-c3ccccn3)nn2-c2ccccc2)[C@H](c2ccc(F)c(F)c2)C1 [Example 480, 1-(4-chloro-1-phenyl-3-(pyridin-2-yl)-1H-pyrazol-5-yl)-3-((3 S,4R)-4-(3,4-difluorophenyl)-1-(2-methoxyethyl)pyrrolidin-3-yl)urea] | > 7.00
13 | COCCN1C[C@@H](NC(=O)Nc2c(Cl)c(-c3ccncc3)nn2-c2ccccc2)[C@H](c2ccc(F)c(F)c2)C1 [Example 481, 1-(4-chloro-1-phenyl-3-(pyridin-4-yl)-1H-pyrazol-5-yl)-3-((3 S,4R)-4-(3,4-difluorophenyl)-1-(2-methoxyethyl)pyrrolidin-3-yl)urea] | > 7.00
14 | COCCN1C[C@@H](NC(=O)Nc2c(Cl)c(-c3cccnc3)nn2-c2ccccc2)[C@H](c2ccc(F)c(F)c2)C1 [Example 482, 1-(4-chloro-1-phenyl-3-(pyridin-3-yl)-1H-pyrazol-5-yl)-3-((3S,4R)-4-(3,4-difluorophenyl)-1-(2-methoxyethyl)pyrrolidin-3-yl)urea] | > 7.00
15 | COCCN1C[C@@H](NC(=O)Nc2c(Br)c(-c3cccnc3)nn2-c2ccccc2)[C@H](c2ccc(F)c(F)c2)C1 [Example 483, 1-(4-bromo-1-phenyl-3-(pyridin-3-yl)-1H-pyrazol-5-yl)-3-((3 S,4R)-4-(3,4-difluorophenyl)-1-(2-methoxyethyl)pyrrolidin-3-yl)urea] | > 7.00
16 | COCCN1C[C@@H](NC(=O)Nc2c(Br)c(-c3ccccn3)nn2-c2ccccc2)[C@H](c2ccc(F)c(F)c2)C1 [Example 484, 1-(4-bromo-1-phenyl-3-(pyridin-2-yl)-1H-pyrazol-5-yl)-3-((3S,4R)-4-(3,4-difluorophenyl)-1-(2-methoxyethyl)pyrrolidin-3-yl)urea] | > 7.00
17 | COCCN1C[C@@H](NC(=O)Nc2c(Cl)c(-c3ccccc3)nn2-c2cccnc2)[C@H](c2ccc(F)c(F)c2)C1 [Example 485, 1-(4-chloro-3-phenyl-1-(pyridin-3-yl)-1H-pyrazol-5-yl)-3-((3S,4R)-4-(3,4-difluorophenyl)-1-(2-methoxyethyl)pyrrolidin-3-yl)urea] | 6.00 to 7.00
18 | COCCN1C[C@@H](NC(=O)Nc2c(C)c(-c3cccnc3)nn2-c2ccccc2)[C@H](c2ccc(F)c(F)c2)C1 [Example 486, 1-((3S,4R)-4-(3,4-difluorophenyl)-1-(2-methoxyethyl)pyrrolidin-3-yl)-3-(4-methyl-1-phenyl-3-(pyridin-3-yl)-1H-pyrazol-5-yl)urea] | > 7.00
19 | COCCN1C[C@@H](NC(=O)Nc2c(C)c(-c3ccncc3)nn2-c2ccccc2)[C@H](c2ccc(F)c(F)c2)C1 [Example 487, 1-((3S,4R)-4-(3,4-difluorophenyl)-1-(2-methoxyethyl)pyrrolidin-3-yl)-3-(4-methyl-1-phenyl-3-(pyridin-4-yl)-1H-pyrazol-5-yl)urea] | > 7.00
20 | COCCN1C[C@@H](NC(=O)Nc2c(C)c(-c3ccccn3)nn2-c2ccccc2)[C@H](c2ccc(F)c(F)c2)C1 [Example 488, 1-((3S,4R)-4-(3,4-difluorophenyl)-1-(2-methoxyethyl)pyrrolidin-3-yl)-3-(4-methyl-1-phenyl-3-(pyridin-2-yl)-1H-pyrazol-5-yl)urea] | > 7.00
21 | COCCN1C[C@@H](NC(=O)Nc2c(C)c(-c3cncc(F)c3)nn2-c2ccccc2)[C@H](c2ccc(F)c(F)c2)C1 [Example 489, 1-((3S,4R)-4-(3,4-difluorophenyl)-1-(2-methoxyethyl)pyrrolidin-3-yl)-3-(3-(5-fluoropyridin-3-yl)-4-methyl-1-phenyl-1H-pyrazol-5-yl)urea] | > 7.00
22 | COCCN1C[C@@H](NC(=O)Nc2c(C)c(-c3cncc(F)c3)nn2-c2cccnc2)[C@H](c2ccc(F)c(F)c2)C1 [Example 490, 1-((3S,4R)-4-(3,4-difluorophenyl)-1-(2-methoxyethyl)pyrrolidin-3-yl)-3-(3-(5-fluoropyridin-3-yl)-4-methyl-1-(pyridin-3-yl)-1H-pyrazol-5-yl)urea] | > 7.00
23 | COCCN1C[C@@H](NC(=O)Nc2c(C)c(-c3ccn(C)n3)nn2-c2ccccc2)[C@H](c2ccc(F)c(F)c2)C1 [Example 491, 1-((3S,4R)-4-(3,4-difluorophenyl)-1-(2-methoxyethyl)pyrrolidin-3-yl)-3-(1′,4-dimethyl-1-phenyl-1H,1′H-[3,3′-bipyrazol]-5-yl)urea] | > 7.00
24 | COCCN1C[C@@H](NC(=O)Nc2c(C)c(-c3ccn(C)n3)nn2-c2ccccc2)[C@H](c2ccc(F)cc2)C1 [Example 492, 1-(1′,4-dimethyl-1-phenyl-1H, 1′H-[3,3′-bipyrazol]-5-yl)-3-((3S,4R)-4-(4-fluorophenyl)-1-(2-methoxyethyl)pyrrolidin-3-yl)urea] | > 7.00
25 | COCCN1C[C@@H](NC(=O)Nc2c(C)c(-c3ccn(C)n3)nn2-c2ccccc2)[C@H](c2cc(F)cc(F)c2)C1 [Example 493, 1-((3S,4R)-4-(3,5-difluorophenyvl)-1-(2-methoxyethyl)pyrrolidin-3-yl)-3-(1′,4-dimethyl-1-phenyl-1H,1′H-[3,3′-bipyrazol]-5-yl)urea] | > 7.00
26 | COCCN1C[C@@H](NC(=O)Nc2c(C)c(-c3ccnn3C)nn2-c2ccccc2)[C@H](c2ccc(F)c(F)c2)C1 [Example 494, 1-((3S,4R)-4-(3,4-difluorophenyl)-1-(2-methoxyethyl)pyrrolidin-3-yl)-3-(2′,4-dimethyl-1-phenyl-1H,2′H-[3,3′-bipyrazol]-5-yl)urea] | > 7.00
27 | COCCN1C[C@@H](NC(=O)Nc2c(C)c(-c3cnn(C)c3)nn2-c2cncc(F)c2)[C@H](c2ccc(F)c(F)c2)C1 [Example 495, 1-((3S,4R)-4-(3,4-difluorophenyl)-1-(2-methoxyethyl)pyrrolidin-3-yl)-3-(1-(5-fluoropyridin-3-yl)-1′,4-dimethyl-1H, 1′H-[3,4′-bipyrazol]-5-yl)urea] | > 7.00
